Data: the NIST ThermoML archive (doi:10.1016/j.fluid.2005.07.009)

Key:
[1] = molar heat capacity at constant pressure; settings: 101.33 kPa, Small sample (50 mg) DSC
[2] = Molar enthalpy of transition or fusion; settings: DSC
[3] = DTA

NCCCN [1,3-propanediamine]
[1]
Settings | molar heat capacity at constant pressure [J/K/mol]
210.17 K, Crystal 2 | 95.15
211.63 K, Crystal 2 | 98.6
212.38 K, Crystal 2 | 99.24
213.45 K, Crystal 2 | 100.56
214.52 K, Crystal 2 | 101.65
215.39 K, Crystal 2 | 102.15
216.89 K, Crystal 2 | 102.21
217.39 K, Crystal 2 | 102.47
218.2 K, Crystal 2 | 103.01
219.56 K, Crystal 2 | 103.15
220.98 K, Crystal 2 | 103.33
221.6 K, Crystal 2 | 104.53
222.57 K, Crystal 2 | 105.45
223.61 K, Crystal 2 | 106.47
224.16 K, Crystal 2 | 106.75
225.7 K, Crystal 2 | 106.91
226.44 K, Crystal 2 | 107.67
226.87 K, Crystal 2 | 108.07
228.09 K, Crystal 2 | 108.1
229.51 K, Crystal 2 | 108.47
230.13 K, Crystal 2 | 109.74
231.59 K, Crystal 2 | 110.88
232.5 K, Crystal 2 | 111.31
233.79 K, Crystal 2 | 111.43
234.58 K, Crystal 2 | 113.62
235.36 K, Crystal 2 | 115.41
237.9 K, Crystal 2 | 116.57
238.39 K, Crystal 2 | 116.7
239.37 K, Crystal 2 | 117.02
240.41 K, Crystal 2 | 119.05
269.31 K, Liquid | 200.32
271.34 K, Liquid | 200.44
273.29 K, Liquid | 200.87
275.36 K, Liquid | 200.94
277.41 K, Liquid | 201.41
279.63 K, Liquid | 201.51
281.55 K, Liquid | 201.82
283.37 K, Liquid | 202.03
285.47 K, Liquid | 202.29
287.35 K, Liquid | 202.53
289.23 K, Liquid | 202.79
291.28 K, Liquid | 203.12
293.27 K, Liquid | 203.44
295.53 K, Liquid | 204.02
297.16 K, Liquid | 204.35
299.44 K, Liquid | 204.4
302.13 K, Liquid | 204.56
304.68 K, Liquid | 204.87
306.46 K, Liquid | 204.95
308.51 K, Liquid | 205.44
310.56 K, Liquid | 205.49
312.42 K, Liquid | 205.78
315.65 K, Liquid | 206.16
317.6 K, Liquid | 206.28
320.27 K, Liquid | 206.67
322.36 K, Liquid | 206.76
325.51 K, Liquid | 207.27
327.54 K, Liquid | 207.43
330.44 K, Liquid | 207.85
333.46 K, Liquid | 207.99

Crystal 1
Settings | Molar enthalpy of transition or fusion [kJ/mol] | Triple point temperature [K]
[2] | 22.4 | –
[3] | – | 262.19

CCCCCCCCN [1-octanamine]
[1]
Settings | molar heat capacity at constant pressure [J/K/mol]
214.08 K, Crystal | 167.97
215.55 K, Crystal | 170.58
217.65 K, Crystal | 171.84
218.54 K, Crystal | 174.15
220.18 K, Crystal | 175.59
221.56 K, Crystal | 175.94
223.07 K, Crystal | 176.5
224.56 K, Crystal | 177.92
226.18 K, Crystal | 179.15
227.54 K, Crystal | 180.21
229.16 K, Crystal | 180.94
230.51 K, Crystal | 183.42
232.12 K, Crystal | 185.1
233.53 K, Crystal | 186.36
235.26 K, Crystal | 187
236.54 K, Crystal | 188.74
238.13 K, Crystal | 189.62
239.53 K, Crystal | 191.53
241.11 K, Crystal | 193.65
242.56 K, Crystal | 195.03
244.04 K, Crystal | 196.53
245.1 K, Crystal | 197.38
246.25 K, Crystal | 197.77
247.23 K, Crystal | 198.38
248.63 K, Crystal | 203.31
249.05 K, Crystal | 203.59
249.65 K, Crystal | 203.61
251.8 K, Crystal | 204.04
252.23 K, Crystal | 204.62
253.02 K, Crystal | 206.62
295.09 K, Liquid | 304.31
295.53 K, Liquid | 304.33
296.13 K, Liquid | 304.35
296.41 K, Liquid | 304.94
297.1 K, Liquid | 304.99
297.32 K, Liquid | 305.36
298.16 K, Liquid | 305.42
298.58 K, Liquid | 305.98
299.02 K, Liquid | 306.08
299.35 K, Liquid | 306.45
300.13 K, Liquid | 306.53
300.53 K, Liquid | 306.69
301.18 K, Liquid | 307.19
301.52 K, Liquid | 307.31
302.16 K, Liquid | 307.33
302.56 K, Liquid | 307.36
303.28 K, Liquid | 307.81
303.51 K, Liquid | 308.08
304.44 K, Liquid | 308.1
304.71 K, Liquid | 308.11
304.99 K, Liquid | 308.47
305.64 K, Liquid | 308.51
306.11 K, Liquid | 308.52
306.59 K, Liquid | 308.6
307.38 K, Liquid | 308.63
307.5 K, Liquid | 308.83
308.05 K, Liquid | 308.92
308.54 K, Liquid | 309.05
309.16 K, Liquid | 309.12
309.24 K, Liquid | 309.24
310.24 K, Liquid | 309.3
310.53 K, Liquid | 309.35
311.07 K, Liquid | 309.39
311.51 K, Liquid | 310.16
312.64 K, Liquid | 310.21
313.22 K, Liquid | 310.76

Settings | Molar enthalpy of transition or fusion [kJ/mol]
[2], Crystal | 34.7

CCCCCCCCCCCO [1-undecanol]
[1]
Settings | molar heat capacity at constant pressure [J/K/mol]
208.41 K, Crystal | 193.11
209.57 K, Crystal | 193.3
210.11 K, Crystal | 194.69
211.02 K, Crystal | 194.71
212.12 K, Crystal | 196.33
213.87 K, Crystal | 198.62
214.48 K, Crystal | 201.14
215.51 K, Crystal | 201.98
216.84 K, Crystal | 205.69
217.02 K, Crystal | 206.89
218.35 K, Crystal | 208.79
219.08 K, Crystal | 211.05
220.29 K, Crystal | 213.58
221.74 K, Crystal | 215.54
222.1 K, Crystal | 216.27
223.31 K, Crystal | 218.06
224.39 K, Crystal | 219.4
225.72 K, Crystal | 221.14
226.26 K, Crystal | 221.42
227.04 K, Crystal | 223.37
228.49 K, Crystal | 225.69
229.28 K, Crystal | 228.09
230 K, Crystal | 228.5
231.02 K, Crystal | 229.81
232.16 K, Crystal | 232.96
233.13 K, Crystal | 234.38
234.75 K, Crystal | 235.74
235.83 K, Crystal | 237.03
236.92 K, Crystal | 238.89
237.34 K, Crystal | 238.93
238.6 K, Crystal | 239.94
239.8 K, Crystal | 239.99
241.66 K, Crystal | 243.63
243.34 K, Crystal | 245.99
244.18 K, Crystal | 246.89
246.11 K, Crystal | 250.54
297.08 K, Liquid | 405.86
298.17 K, Liquid | 407.32
299.23 K, Liquid | 408.96
300.25 K, Liquid | 409.93
301.38 K, Liquid | 411.68
302.21 K, Liquid | 412.61
303.18 K, Liquid | 413.77
304.11 K, Liquid | 414.87
305.18 K, Liquid | 415.8
306.27 K, Liquid | 417.37
307.49 K, Liquid | 418.89
308.58 K, Liquid | 419.76
309.32 K, Liquid | 421.18
310.02 K, Liquid | 422.07
311.09 K, Liquid | 423.23
312.51 K, Liquid | 425.11
313.48 K, Liquid | 426.38
314.66 K, Liquid | 427.93
315.71 K, Liquid | 429.81
316.18 K, Liquid | 430
318.29 K, Liquid | 432.46
320.24 K, Liquid | 435.26
321.15 K, Liquid | 436.27
323.33 K, Liquid | 439.56

Crystal
Settings | Molar enthalpy of transition or fusion [kJ/mol] | Triple point temperature [K]
[2] | 30.6 | –
[3] | – | 289.63

CCCCCCCCCCO [decan-1-ol]
[1]
Settings | molar heat capacity at constant pressure [J/K/mol]
215.12 K, Crystal | 224.54
216.09 K, Crystal | 227.81
217.28 K, Crystal | 228.07
218.46 K, Crystal | 228.68
219.05 K, Crystal | 228.9
219.59 K, Crystal | 229.05
222.22 K, Crystal | 229.19
222.81 K, Crystal | 230.27
223.03 K, Crystal | 230.39
226.41 K, Crystal | 231.18
227.05 K, Crystal | 232.61
229.62 K, Crystal | 232.81
230.15 K, Crystal | 233.54
231.71 K, Crystal | 234.37
232.3 K, Crystal | 234.76
233.74 K, Crystal | 235.5
234.54 K, Crystal | 235.92
235.82 K, Crystal | 237.25
236.3 K, Crystal | 237.29
237.11 K, Crystal | 238.88
238.28 K, Crystal | 239.81
239.94 K, Crystal | 240.28
240.47 K, Crystal | 240.35
241.16 K, Crystal | 241
242.71 K, Crystal | 241.58
244.15 K, Crystal | 244.94
246.13 K, Crystal | 245.49
248.85 K, Crystal | 245.75
249.22 K, Crystal | 246.47
250.88 K, Crystal | 247.17
251.14 K, Crystal | 247.6
252.58 K, Crystal | 250.51
253.49 K, Crystal | 252.9
284.18 K, Liquid | 357.16
285.11 K, Liquid | 357.65
286.23 K, Liquid | 359.66
287.17 K, Liquid | 360.07
288.21 K, Liquid | 361.72
289.63 K, Liquid | 363.32
290.29 K, Liquid | 363.87
291.08 K, Liquid | 364.63
292.13 K, Liquid | 366.29
293.23 K, Liquid | 366.99
294.29 K, Liquid | 368.16
295.69 K, Liquid | 369.19
296.43 K, Liquid | 370.09
297.49 K, Liquid | 370.33
298.55 K, Liquid | 373
299.51 K, Liquid | 374.14
300.21 K, Liquid | 375.31
301.18 K, Liquid | 375.74
302.45 K, Liquid | 377.89
304.22 K, Liquid | 380.22
305.31 K, Liquid | 381.17
306.42 K, Liquid | 382.5
307.18 K, Liquid | 383.77
308.14 K, Liquid | 384.86

Crystal
Settings | Molar enthalpy of transition or fusion [kJ/mol] | Triple point temperature [K]
[2] | 31.4 | –
[3] | – | 278.67

CCCCCCCCCO [nonan-1-ol]
Crystal
Settings | Molar enthalpy of transition or fusion [kJ/mol] | Triple point temperature [K]
[2] | 24.5 | –
[3] | – | 268.1

CCCCCCCCO [octan-1-ol]
Settings | Triple point temperature [K]
[3], Crystal | 258.03
